Assays:
[1] = test system: murine leukemic P388 cells; assay: In vivo anticancer activity, murine leukemic P388 model; parameters: species or system DBA/2J mice; conditions: for increase of life span: P.O., daily, 4×
Procedure: The in vivo anticancer activities of the compounds are evaluated by the following murine leukemic P388 model. Inbred female DBA/2J mice of 4-5 week-old were purchased from the Charles River Laboratories Inc., Wilmington, Mass., USA and the National Laboratory Animals Breeding and Research Center, Taipei, Taiwan, ROC. Murine leukemic P388 cells are purchased from the Japanese Collection of Research Bioresources, Japan. P388 cells are cultured and propagated in RPMI1640 medium supplemented with 50 μM 2-mercaptoethanol and 10% fetal bovine serum. Mice at the age of 6 weeks were grouped as the treatment, negative control and positive control groups at 7 to 8 mice per group. All mice are intravenously inoculated with the P388 cells at one million per mouse one day before the treatments initiated. Compounds of this invention are dissolved in dimethyl sulfoxide (DMSO) and then diluted in 0.5% carboxymethyl cellulose with the final concentration of DMSO less than 0.5%. Different treatment groups are orally given (P.O.), respectively, with compounds of different doses for a pharmacological dose-response relationship. Mice of the negative control group are treated with the dosing vehicle, 0.5% carboxymethyl cellulose. Doxorubicin of the maximal tolerated dose, 10 mg/kg, is given intravenously as an experimental positive control. The cancer cell-inoculated animals are monitored twice daily. The time on which 50% of the P388-inoculated mice is still surviving is defined as the medium survival time and is used to calculate the percentage (normalized to the medium survival time of the control group) of increased in life span after treatment, which is then served as the index of treatment response.

[2] = test system: breast MCF7 cancer cells; assay: In vitro cytotoxicity MTS assay, breast MCF7; type: cell-based, human; conditions: 72 hours
Procedure: (§1) A panel of human cancer cells, gastric NUGC3 and HR, nasopharyngeal HONE1, hepatocellular HEP G2 and HA-22T, colorectal DLD1, lung A549, prostate PC3, breast MCF7 and its adriamycin-resistant MCF7/ADR subline, uterus MES-SA and its adriamycin-resistant MES-SA/Dx5 subline, is purchased from Food Industry Research and Development Institute, Hsinchu, Taiwan R.O.C. or American Type Culture Collection, Manassas, Va. U.S.A., are used in in vitro cytotoxicity assays. The human cells are seeded at a cell density of 3000 or 4500 cells/100 μl/well in 96-well flat-bottom plates and incubated for 24 hours at 37° C. in a 5% CO2 incubator. The testing compounds are dissolved in dimethyl sulfoxide (DMSO) and further diluted into the culture medium for treatments of human cancer cells in vitro. The drug-containing media has a final DMSO concentration of ≦0.3%. The compounds of this invention are prepared in culture media for testing at a range of concentrations from 10, 1, 0.1, 0.01 to 0.001 μM. Each compound solution is (200 μl/well in duplicate) in the cell plates and is treated for 72 hours at 37° C., 5% CO2 in an incubator. Actinomycin D at 5 μM and 0.3% DMSO are used as the positive and vehicle controls, respectively. A colorimetric assay using 3-(4,5-dimethylthiazol-2-yl)-5-(3-carboxymethoxyphenyl)-2-(4-sulfophenyl)-2H-tetrazolium (MTS) and phenazine methosulfate (PMS) is used to determine the potency of the compounds. This assay measures cell viability based on the cellular activity in conversion of a tetrazolium salt into a colored soluble formazan product. The optical density (OD) values are measured at 490 nm with a 1420 multilabel counter VICTOR® from Wallac, Turku, Finland. All of the measured values are subtracted with that of the blank control wells without cells before further calculations. The efficacy data are expressed as a percentage normalized to the vehicle controls as calculated in the following formulae. Inhibitory potency (% of vehicle control)=[(OD490compound−OD490blank)/(OD490vehicle−OD490blank)]×100%. The concentration (IC50) of a test compound that inhibits 50% of the cellular activity is determined.

[3] = test system: hepatocellular HA-22T cancer cells; assay: In vitro cytotoxicity MTS assay, hepatocellular HA-22T; type: cell-based, human; conditions: 72 hours
Procedure: as §1

[4] = test system: gastric HR cancer cells; assay: In vitro cytotoxicity MTS assay, gastric HR; type: cell-based, human; conditions: 72 hours
Procedure: as §1

[5] = test system: gastric NUGC3 cancer cells; assay: In vitro cytotoxicity MTS assay, gastric NUGC3; type: cell-based, human; conditions: 72 hours
Procedure: as §1

[6] = test system: hepatocellular HEP G2 cancer cells; assay: In vitro cytotoxicity MTS assay, hepatocellular HEP G2; type: cell-based, human; conditions: 72 hours
Procedure: as §1

[7] = test system: nasopharyngeal HONE1 cancer cells; assay: In vitro cytotoxicity MTS assay, nasopharyngeal HONE1; type: cell-based, human; conditions: 72 hours
Procedure: as §1

[8] = test system: adriamycin-resistant MCF7/ADR subline; assay: In vitro cytotoxicity MTS assay, adriamycin-resistant MCF7/ADR; type: cell-based, human; conditions: 72 hours
Procedure: as §1

[9] = test system: rat aorta endothelial cells; assay: Rat aorta tube formation assay (angiogenesis inhibition); type: cell-based, Spraque-Dawley rats; parameters: key: Noninhibitors are indicated by the symbol (−), meaning that the extent of endothelial cell growth is essentially at the same level as that of the control; The most potent inhibitors receive a score of (+++++), indicating essentially no measurable endothelial cell growth; conditions: 5 days
Procedure: The procedures are modified from previous reports (Burbridge and West 2001; Bauer et al. 2000; Nicosai and Ottinetti 1990a) and described as follows. Male Spraque-Dawley rats of 6-8 weeks old are purchased from the National Laboratory Animal Breeding and Research Center (Taipei, Taiwan). The animals are anesthetized with urethane (2 g/kg, intraperitoneal) and the thoracic aortas are quickly harvested in a laminar flow hood. The aortas are rinsed with ice-cold normal saline with 10 μg/ml gentamicin and the attached fibroadipose tissues are removed using micro-dissection scissors. The aortas are cross-sectioned into rings of 1 mm in thickness. A mixture of Matrigel®, purchased from BD Biosciences, solution and the EBM-II medium, purchased from BioWhittaker Inc., (1:1) with 2% FBS, 0.25 mg/ml, amphotericin B and 10 μg/ml gentamicin is prepared and added at 100 μl to each well of a 48-well plate. The mixture is allowed to gel at 37° C. Aorta rings are then placed onto the gelled matrix and embedded in an additional 150 μl per well of the mixture solution and allowed to gel at 37° C. The aorta rings are then covered with 125 μl of the EGM-II medium and incubated overnight in humidified incubator with 5% CO2/95% air at 37° C. After removal of the EGM-II from the established aorta cultures, the compound-containing media are applied at 300 μl per well to the cultures and then incubated in 5% CO2/95% air at 37° C. for 5 days. The cultures are then subject to the 3-[4,5-dimethylthiazol-2-yl]-2,5 diphenyl-2H-tetrazolium bromide (MTT) or 3-(4,5-dimethylthiazol-2-yl)-5-(3-carbomethoxyphenyl)-2H-tetrazolium (MTS) assay and OD490 nm values measured. The testing compounds are dissolved in dimethyl sulfoxide (DMSO) and prepared in EBM-II media with at a final concentration of DMSO less than 0.1%.
The capillary-like, tube structure of the outgrown rat aorta endothelial cells is easily visualized by MTT staining. The medium on top of the matrix is removed from the established aorta ring cultures. MTT solution of 5 mg/ml in saline is added to the cultures at 100 μl/well and the cultures are incubated in a CO2 incubator at 37° C. for 24 hr. The stained cultures are then examined under a microscope DMIRB from Leica and photos taken with a digital camera.
Inhibition activity is also assessed in the following manner. The reductive reaction of MTS initiated by the viable cellular mitochondrial activity is used as a basis for the measurement of cell viability (Cory et al. 1991; Gieni et al. 1995). To the rat aorta ring cultures 300 μl of a solution containing 100 μg MTS and 1 μg, phenazine methosulfate is added per well and incubated in 5% CO2/95% air at 37° C. for 24 hr. During the incubation, MTS is converted to formazan product. At the end of incubation, the solution overlaying the gel is well-mixed and 100 μl aliquots are transferred into a 96-well plate for measurement of OD490 nm with a spectrophotometer VICTOR™-II from Wallac Oy.
The compounds listed in Table 3 are screened for angiogenesis inhibition. The control compound, ASTA, is D-24851, N-[pyridin-4-yl]-[1-(4-chlorobenzyl)-indol-3-yl]-glyoxylic acid amide. Noninhibitors are indicated by the symbol (−), meaning that the extent of endothelial cell growth is essentially at the same level as that of the control.

[10] = test system: colorectal DLD1 cancer cells; assay: In vitro cytotoxicity MTS assay, colorectal DLD1; type: cell-based, human; conditions: 72 hours
Procedure: as §1

Row | Compound | increased of life span ([1]; maximal tolerated dose, 10 mg/kg, intravenously, mean±sd) | IC50 [2] | IC50 [3] | IC50 [4] | IC50 [5] | IC50 [6] | IC50 [7] | IC50 [8] | Inhibition Score ([9]; final conc. 0.3 μg/ml) | IC50 [10] | increase of life span ([1]; 25 mg/kg, P388-inoculated mice) | increase of life span ([1]; 50 mg/kg, P388-inoculated mice) | increase of life span ([1]; 100 mg/kg, P388-inoculated mice) | increase of life span ([1]; 150 mg/kg, P388-inoculated mice) | increase of life span ([1]; 200 mg/kg, P388-inoculated mice) | increase of life span ([1]; 400 mg/kg, P388-inoculated mice) | activity in the increase of life span (dose-response) ([1]; oral, P388-inoculated mice) | Inhibition Score ([9]; final conc. 1 μg/ml)
1 | COc1cccc2c1C(=O)c1c(O)c3c(c(O)c1C2=O)C[C@@](O)(C(=O)CO)C[C@@H]3O[C@H]1C[C@H](N)[C@H](O)[C@H](C)O1 [doxorubicin, reference compound] | 119±18% |  |  |  |  |  |  |  |  |  |  |  |  |  |  |  |  | 
2 | Cc1cc(Cn2cc(C(=O)C(=O)Nc3ccc4ncccc4c3)c3ccccc32)on1 [Compound 59] |  | 678 nM | 115 nM | 294 nM | 262 nM | 613 nM | 34 nM | 300 nM | +++++ | 658 nM |  |  |  |  |  |  |  | 
3 | Cc1cc(Cn2cc(C(=O)C(=O)Nc3ccc(Br)cc3)c3ccccc32)on1 [Compound 62] |  | 872 nM | 148 nM | 300 nM | 137 nM | 6810 nM | 42 nM | 509 nM |  | 651 nM |  |  |  |  |  |  |  | 
4 | O=C(Nc1ccc2ncccc2c1)C(=O)c1cn(Cc2ccsc2)c2ccccc12 [Compound 48] |  | 915 nM | 303 nM | 552 nM | 206 nM | 4130 nM | 217 nM | 371 nM |  | 1430 nM | 25% | 60% | 25% | 68 ± 25% | 63% | 229% | dose-dependent activity | 
5 | N#Cc1ccc(Cn2cc(C(=O)C(=O)NCCCCCCOc3ccc(Cl)cc3)c3ccccc32)cc1 [Compound 43] |  | 856 nM | 200 nM | 291 nM | 134 nM | 713 nM | 31 nM | 412 nM |  | 534 nM |  |  |  |  |  |  |  | 
6 | COc1ccc(NC(=O)C(=O)c2cn(Cc3ccccc3C#N)c3ccccc23)cc1 [Compound 32] |  | 5180 nM | 1910 nM | 2250 nM | 4850 nM | 4770 nM | 928 nM | 5290 nM | +++++ | 5650 nM |  |  |  |  |  |  |  | 
7 | O=C(Nc1ccc2ncccc2c1)C(=O)c1cn(Cc2cscn2)c2ccccc12 [Compound 77] |  | 1320 nM | 469 nM | 721 nM | 458 nM | > 10000 nM | 380 nM | 595 nM | +++++ | 1500 nM |  |  |  |  |  |  |  | 
8 | Cc1cc(NC(=O)C(=O)c2cn(Cc3ccc(C#N)cc3)c3ccc(Br)cc23)sn1 [Compound 24] |  | 7650 nM | 2840 nM | 5460 nM | 1720 nM | 3590 nM | 401 nM | 2550 nM | − | 5800 nM |  |  |  |  |  |  |  | 
9 | COc1ccc(NC(=O)C(=O)c2cn(Cc3ccsc3)c3ccccc23)cc1 [Compound 50] |  | 171 nM | 46 nM | 128 nM | 37 nM | 1320 nM | 38 nM | 406 nM |  | 734 nM |  |  |  |  |  |  |  | 
10 | Cc1cc(NC(=O)C(=O)c2cn(Cc3cc(C(C)C)no3)c3ccccc23)sn1 [Compound 65] |  | 700 nM | 302 nM | 324 nM | 242 nM | 720 nM | 50 nM | 710 nM | +++++ | 609 nM |  |  |  |  |  |  |  | 
11 | Cc1cc(NC(=O)C(=O)c2cn(Cc3cccs3)c3ccccc23)sn1 [Compound 44] |  |  |  |  |  |  |  |  |  |  |  |  |  |  |  |  |  | +++++
12 | O=C(Nc1cc(-c2ccc(Cl)cc2)no1)C(=O)c1cn(Cc2ccc(Cl)cc2)c2ccccc12 [Compound 38] |  | 4260 nM | 2240 nM | 2980 nM | 2010 nM | 3460 nM | 487 nM | 4080 nM | − | 3720 nM |  |  |  |  |  |  |  | 
13 | N#Cc1ccc(Cn2cc(C(=O)C(=O)Nc3cc(-c4ccc(Cl)cc4)no3)c3ccccc32)cc1 [Compound 30] |  | 920 nM | 558 nM | 739 nM | 639 nM | 953 nM | 332 nM | 847 nM |  | 926 nM |  |  |  |  |  |  |  | 
14 | O=C(Nc1ccc2ncccc2c1)C(=O)c1cn(Cc2ccco2)c2ccccc12 [Compound 42] |  | 928 nM | 345 nM | 453 nM | 634 nM | 3980 nM | 296 nM | 527 nM | +++++ | 799 nM |  |  |  |  |  |  |  | 
